Assay results reported in patent publication US20260034094A1, “COMPOSITIONS AND METHODS FOR INDUCING FERROPTOSIS” (Kojin Therapeutics, Inc., priority 2022, published 2026).
“And” between values parts separate entries of the source, which are not always exact repeats. Equal values may be shown once. Read-outs that look alike come from different tables or passages of the source.

Tests used:
[1] = target: human recombinant GCL (Homo sapiens (Human), UniProt P48506); test: GCL enzyme profiling assay (ADP-Glo luminescence); format: biochemical
In short: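 ADP-Glo luminescence readout; 5 nM enzyme preincubated 1 h at 22 °C with 0.6 mM ATP, then started with 1 mM glutamate and 1.2 mM α-aminobutyrate, stopped after 2 h. Buffer: HEPES pH 7.5, MgCl2, DTT, BSA, 0.2% F-127, 1% DMSO. IC50 from four-parameter logistic fit.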

[2] = system: RKN cells; test: RKN cell profiling assay (cell viability, CellTiter-Glo); format: cell-based; details: read-out: Cell Killing EC50
In short: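 Cells seeded at 1,000/well in F-12 with 10% FBS, left to adhere 24 h, then compound-treated for 96 h at 0.5% final DMSO. Viability by CellTiter-Glo luminescence; EC50 from four-parameter logistic fit. Ferroptosis rescue runs included 1.5 μM ferrostatin-1 added at seeding.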

[3] = human recombinant GCL 5 nM, 1 h preincubation with ATP, read-out: GCL IC50
[4] = human recombinant GCL, ADP-Glo, read-out: GCL IC50

human recombinant GCL, sequence (P48506 whole entry): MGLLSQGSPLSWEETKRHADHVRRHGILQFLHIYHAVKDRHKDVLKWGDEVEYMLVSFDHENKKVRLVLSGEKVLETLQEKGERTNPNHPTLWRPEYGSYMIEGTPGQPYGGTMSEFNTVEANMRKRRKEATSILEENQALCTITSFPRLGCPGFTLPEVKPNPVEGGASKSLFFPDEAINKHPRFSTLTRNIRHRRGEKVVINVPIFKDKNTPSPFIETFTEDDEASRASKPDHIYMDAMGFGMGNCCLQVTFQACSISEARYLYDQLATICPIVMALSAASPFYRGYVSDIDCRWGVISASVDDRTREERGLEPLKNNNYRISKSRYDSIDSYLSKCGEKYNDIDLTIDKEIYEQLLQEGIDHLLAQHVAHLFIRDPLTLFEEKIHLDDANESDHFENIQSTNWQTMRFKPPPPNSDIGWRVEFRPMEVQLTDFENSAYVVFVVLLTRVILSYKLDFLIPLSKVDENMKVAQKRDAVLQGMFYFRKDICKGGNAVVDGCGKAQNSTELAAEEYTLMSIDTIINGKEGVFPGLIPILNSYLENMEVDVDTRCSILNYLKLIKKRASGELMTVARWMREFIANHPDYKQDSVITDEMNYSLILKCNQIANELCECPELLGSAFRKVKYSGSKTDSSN

Compound | IC50 [1, 3] | EC50 ([2]; 96 h, 96 h exposure) [µM] | IC50 [1, 4] [mM] | EC50 ([2]; cell viability) [µM] | other results
N=S(=O)(CCc1cccc(OC(F)(F)F)c1)CC[C@H](N)C(=O)O (some centres unmarked) [Compound 4] | 0.02 to 2 mM | ≥ 1000 |  |  | 
N=S(=O)(CCCC(O)(c1ccc(-c2ccccc2)cc1)C(F)(F)F)CC[C@H](N)C(=O)O (some centres unmarked) [Compound 335] |  |  | 0.02 to 2 | ≥ 1000 | 
CC(C)(C)OC(=O)[C@@H](N)CC[S@](=N)(=O)CC[C@@H](O)C(F)(F)F [Compound 492] |  |  | > 2 | ≥ 1000 | 
Cc1cc(F)ccc1-c1ccc(C(O)(CCS(=N)(=O)CC[C@H](N)C(=O)O)C(F)(F)F)nc1 (some centres unmarked) [Compound 479] |  |  | ≤ 0.02 | < 1000 | 
Cc1cccc(CCS(=N)(=O)CC[C@H](N)C(=O)O)c1C (some centres unmarked) [Compound 27] | 0.02 to 2 mM | ≥ 1000 |  |  | 
CC1(CCS(=N)(=O)CC[C@H](N)C(=O)O)COC1 (some centres unmarked) [Compound 185] | 0.02 to 2 mM |  |  |  | EC50 ([2]; 96 h exposure): ≥ 1000 µM
N=S(=O)(CCc1nccs1)CC[C@H](N)C(=O)O (some centres unmarked) [Compound 10] | > 2 mM | ≥ 1000 |  |  | 
N=S(=O)(CC[C@H](N)C(=O)O)CCC(O)(c1ccc(-c2cnco2)cn1)C(F)(F)F (some centres unmarked) [Compound 480] |  |  | 0.02 to 2 | ≥ 1000 | 
N=S(=O)(CC[C@H](N)C(=O)O)CCC(O)(c1ccccn1)C(F)(F)F (stereo partly drawn) [Compound 350, (2S)-2-amino-4-(4,4,4-trifluoro-3-hydroxy-3-(pyridin-2-yl)butylsulfonimidoyl)butanoic acid] |  |  | ≤ 0.02 | < 1000 | 
COCCCCS(=N)(=O)CC[C@H](N)C(=O)OC (some centres unmarked) [Compound 76] | 0.02 to 2 mM | ≥ 1000 |  |  | 
CC(C)(C)CCS(=N)(=O)CC[C@H](N)C(=O)Nc1ccncc1 (some centres unmarked) [Compound 127] | > 2 mM | < 1000 |  |  | 
CN(C)C(=O)[C@@H](N)CCS(=N)(=O)CCC(C)(C)C (some centres unmarked) [Compound 115] | > 2 mM | ≥ 1000 |  |  | 
N=S(=O)(CCc1ccccc1Cl)CC[C@H](N)C(=O)O (some centres unmarked) [Compound 19] | ≤ 0.02 mM | < 1000 |  |  | 
N=S(=O)(CC[C@H](N)C(=O)O)CCC(O)(c1cc2cc[nH]c2cn1)C(F)(F)F (some centres unmarked) [Compound 360] |  |  | ≤ 0.02 | < 1000 | 
N#Cc1cc(-c2ccc(C(O)(CCS(=N)(=O)CC[C@H](N)C(=O)O)C(F)(F)F)cc2)ccc1O (some centres unmarked) [Compound 454] |  |  | ≤ 0.02 | ≥ 1000 | 
CCCCNC(=O)[C@@H](N)CCS(=N)(=O)CCCC(F)(F)F (some centres unmarked) [Compound 131] | > 2 mM | < 1000 |  |  | 
N=S(=O)(CCC1CC(F)(F)C1)CC[C@H](N)C(=O)O (some centres unmarked) [Compound 161] | 0.02 to 2 mM | < 1000 |  |  | 
N=S(=O)(/C=C/c1ccccc1)CC[C@H](N)C(=O)O (some centres unmarked) [Compound 156] | 0.02 to 2 mM | ≥ 1000 |  |  | 
N[C@@H](CCS(=O)(=O)NCC(O)(c1ccc(-c2ccccc2)cn1)C(F)(F)F)C(=O)O (stereo partly drawn) [Compound 514, (2S)-2-amino-4-(N-(3,3,3-trifluoro-2-hydroxy-2-(5-phenylpyridin-2-yl)propyl)sulfamoyl)butanoic acid] |  |  | 0.02 to 2 | ≥ 1000 | 

Compound | IC50 [1, 3] | EC50 ([2]; 96 h, 96 h exposure) [µM] | IC50 [1, 4] [mM] | EC50 ([2]; cell viability) [µM] | other results
N=S(=O)(CC[C@H](N)C(=O)O)CCC1(O)[C@H]2C[C@@H]3C[C@@H](C[C@H]1C3)C2 (some centres unmarked) [Compound 302] |  |  | 0.02 to 2 | ≥ 1000 | 
N=S(=O)(CC[C@H](N)C(=O)O)CCC1(C(=O)N2CCC2)CCC1 (some centres unmarked) [Compound 196] | 0.02 to 2 mM | ≥ 1000 |  |  | 
CCCCc1ccc(C(CCS(=N)(=O)CC[C@H](N)C(=O)O)C(F)(F)F)cc1 (some centres unmarked) [Compound 224] |  |  | ≤ 0.02 | < 1000 | 
N=S(=O)(CC[C@H](N)C(=O)O)CCC(O)(c1cc(-c2ccccc2)on1)C(F)(F)F (some centres unmarked) [Compound 378] |  |  | ≤ 0.02 | < 1000 | 
C[C@@](O)(CCS(=N)(=O)CC[C@H](N)C(=O)O)C(F)(F)F (single isomer, unassigned) [Compound 323] |  |  | > 2 | ≥ 1000 | 
COc1ccc(-c2ccc(C3(CCS(=N)(=O)CC[C@H](N)C(=O)O)CCC3)cc2)c(Cl)c1 (some centres unmarked) [Compound 400] |  |  | ≤ 0.02 | < 1000 | 
N=S(=O)(CCC1C2CC3CC(C2)CC1C3)CC[C@H](N)C(=O)O (some centres unmarked) [Compound 143] | 0.02 to 2 mM | ≥ 1000 |  |  | 
CC(C)(CCS(=N)(=O)CC[C@H](N)C(=O)O)c1ccccc1 (stereo partly drawn) [Compound 49, (2S)-2-amino-4-(3-methyl-3-phenylbutylsulfonimidoyl)butanoic acid] | 0.02 to 2 mM | ≥ 1000 |  |  | 
N=S(=O)(CCC(c1ccc(-c2ccc(OC(F)(F)F)cc2)cc1)C(F)(F)F)CC[C@H](N)C(=O)O (some centres unmarked) [Compound 233] |  |  | ≤ 0.02 | < 1000 | 
N[C@@H](CCS(=O)(=O)CCC1(c2ccccn2)CCC1)C(=O)O [compound 390] |  |  | > 2 | ≥ 1000 | 
CC(C)(CCS(=N)(=O)CC[C@H](N)C(=O)O)C(N)=O (some centres unmarked) [Compound 190] | 0.02 to 2 mM | ≥ 1000 |  |  | 
COCCS(=N)(=O)CC[C@H](N)C(=O)O (some centres unmarked) [Compound 164] | 0.02 to 2 mM | ≥ 1000 |  |  | 
N=S(=O)(CC[C@H](N)C(=O)O)CCC(O)(c1ccc(C(F)(F)F)cc1)C(F)(F)F (some centres unmarked) [Compound 338] |  |  | ≤ 0.02 | ≥ 1000 | 
CCCCS(=N)(=O)CC[C@H](N)C(=O)OCc1oc(=O)oc1C (stereo partly drawn) [Compound 73, (2S)-(5-methyl-2-oxo-1,3-dioxol-4-yl)methyl 2-amino-4-(butylsulfonimidoyl) butanoate] | > 2 mM and 0.02 to 2 mM | ≥ 1000 |  |  | 
N=S(=O)(CCC(c1ccc(-c2ccccc2)cc1O)C(F)(F)F)CC[C@H](N)C(=O)O (stereo partly drawn) [Compound 391, (2S)-2-amino-4-(4,4,4-trifluoro-3-(3-hydroxy-[1,1′-biphenyl]-4-yl)butylsulfonimidoyl)butanoic acid] |  |  | ≤ 0.02 | < 1000 | 
N=S(=O)(CCCC(F)F)CC[C@H](N)C(=O)O (some centres unmarked) [Compound 169] | ≤ 0.02 mM and 0.02 to 2 mM | < 1000 |  |  | IC50 ([1]; human recombinant GCL 5 nM, 1 h preincubation with ATP, read-out: GCL IC50 (mM), individual values in parentheses): 0.0102 mM and 0.1 mM
CCOc1cccc(-c2ccc(C(O)(CCS(=N)(=O)CC[C@H](N)C(=O)O)C(F)(F)F)cc2)c1 (some centres unmarked) [Compound 451] |  |  | ≤ 0.02 | < 1000 | 
N=S(=O)(CC[C@H](N)C(=O)O)CCC(O)(c1ccc(-c2ccc(Cl)cc2Cl)cn1)C(F)(F)F (some centres unmarked) [Compound 463] |  |  | ≤ 0.02 | < 1000 | 
CCCCS(=N)(=O)CC[C@H](N)C(=O)OCC (some centres unmarked) [Compound 482] |  |  | 0.02 to 2 | ≥ 1000 | 

Compound | IC50 [1, 3] | EC50 ([2]; 96 h, 96 h exposure) [µM] | IC50 [1, 4] [mM] | EC50 ([2]; cell viability) [µM] | other results
N=S(=O)(CCC(c1ccccc1)C(F)(F)F)CC[C@H](N)C(=O)O (some centres unmarked) [Compound 53] | 0.02 to 2 mM | < 1000 |  |  | 
N=S(=O)(CC[C@H](N)C(=O)O)CCC(O)(C1CCCC1)C(F)(F)F (some centres unmarked) [Compound 356] |  |  | 0.02 to 2 | ≥ 1000 | 
N=S(=O)(CC[C@H](N)C(=O)O)CCC(O)(c1ccc(Oc2ccccc2)cn1)C(F)(F)F (some centres unmarked) [Compound 372] |  |  | ≤ 0.02 | < 1000 | 
CCCCS(=N)(=O)CC[C@H](N)C(=O)NCC#N (some centres unmarked) [Compound 106] | > 2 mM | ≥ 1000 |  |  | 
N=[S@@](=O)(CC[C@H](N)C(=O)O)CCC1(c2ccccc2)CCC1 (single isomer, unassigned) [Compound 392] |  |  | ≤ 0.02 | < 1000 | 
N=S(=O)(CCCC(F)(F)F)CC[C@H](N)c1ncno1 (stereo partly drawn) [Compound 204, (1S)-1-(1,2,4-oxadiazol-5-yl)-3-(4,4,4-trifluorobutylsulfonimidoyl)propan-1-amine] | > 2 mM | ≥ 1000 |  |  | 
Cc1ccc(CCS(=N)(=O)CC[C@H](N)C(=O)O)c(Cl)c1 (some centres unmarked) [Compound 43] | ≤ 0.02 mM | ≥ 1000 |  |  | 
N#Cc1ccc(-c2ccc(C(CCS(=N)(=O)CC[C@H](N)C(=O)O)C(F)(F)F)cc2)cn1 (some centres unmarked) [Compound 244] |  |  | ≤ 0.02 | ≥ 1000 | 
N[C@H]1CC[S@@](=O)(CC[C@H](O)C(F)(F)F)=NC1=O [Compound 496, (1R,4S)-4-amino-1-((S)-4,4,4-trifluoro-3-hydroxybutyl)-5,6-dihydro-116,2-thiazin-3 (4H)-one 1-oxide] |  |  | 0.02 to 2 | < 1000 | 
N=S(=O)(CCc1ccccc1)CC[C@H](N)C(=O)O (stereo partly drawn) [Compound 2, (2S)-2-amino-4-(2-phenylethylsulfonimidoyl)butanoic acid] | 0.02 to 2 mM | ≥ 1000 |  |  | 
N=S(=O)(CC[C@@H](O)C(F)(F)F)CC[C@H](N)C(=O)O (single isomer, unassigned) [Compound 329] |  |  | > 2 | ≥ 1000 | 
Cc1ccc(-c2nn[nH]n2)cc1CCS(=N)(=O)CC[C@H](N)C(=O)O (some centres unmarked) [Compound 45] | ≤ 0.02 mM | ≥ 1000 |  |  | 
CC(CS(=N)(=O)CC[C@H](N)C(=O)O)c1ccccc1Cl (some centres unmarked) [Compound 38] | 0.02 to 2 mM | ≥ 1000 |  |  | 
CCCCOC(=O)[C@@H](N)CCS(=N)(=O)CCC(O)(c1ccc(-c2ccc(Cl)cc2Cl)cc1)C(F)(F)F (some centres unmarked) [Compound 485] |  |  | 0.02 to 2 | < 1000 | 
N=S(=O)(CC[C@H](N)C(=O)O)CCC1(n2ncc(-c3ccccn3)n2)CCC1 (some centres unmarked) [Compound 418] |  |  | 0.02 to 2 | ≥ 1000 | 
N=S(=O)(CCc1ccc(Cl)cc1)CC[C@H](N)C(=O)O (stereo partly drawn) [Compound 1, (2S)-2-amino-4-(2-(4-chlorophenyl)ethylsulfonimidoyl)butanoic acid] | ≤ 0.02 mM | ≥ 1000 |  |  | 
Cc1cnn(C(CCS(=N)(=O)CC[C@H](N)C(=O)O)C(F)(F)F)n1 (some centres unmarked) [Compound 406] |  |  | ≤ 0.02 | < 1000 | 
N=S(=O)(CCC(O)C(F)(F)F)CC[C@H](N)C(=O)O (stereo partly drawn) [Compound 154, (2S)-2-amino-4-(4,4,4-trifluoro-3-hydroxybutylsulfonimidoyl)butanoic acid] | ≤ 0.02 mM | < 1000 |  |  | 
